Results on one substance are retold here after patent US20060135458A1, “Antiviral oligonucleotides” (priority 2002, published 2006).

In the oligonucleotide strings, read from the 5' end, every base follows the letter of its sugar. An asterisk marks phosphorothioate; unmarked linkages are phosphodiester. Other units and linkages are bracketed, terminal groups are in braces. A string of capitals states the bases alone. d = 2'-deoxy (DNA)

This data set concerns Bal 31. Also noted: key to the marks not given beside the values.

As to “REP 2029: A40 (polyA) PS-ON (DNA dA*dA*dA*dA*dA*dA*dA*dA*dA*dA*dA*dA*dA*dA*dA*dA*dA*dA*dA*dA*dA*dA*dA*dA*dA*dA*dA*dA*dA*dA*dA*dA*dA*dA*dA*dA*dA*dA*dA*dA)”, the “Nuclease resistance, Bal 31” value was “++++”.
